# Experimental data reported in US10159685B2, “Vascular calcification” (Cambridge Enterprise Limited, priority 2016, dated 2018).
# How the values were obtained:
# [1] = system: bovine vascular smooth muscle cells (bVSMCs); test: o-Cresolphthalein Ca2+ assay, bVSMC GAD calcification model (Examples 4 and 5); assay type: cell-based
# [2] = cited from earlier work
# [3] = system: bovine vascular smooth muscle cells (bVSMCs); assay type: cell-based; settings: at the concentrations tested (0.5 to 100 μM), 7 days
# Procedure, shortened: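 Bovine VSMCs grown 1 day in M199/20% FCS, then exposed to inhibitors at 0.5–100 μM in M199 + 5% FBS for 7 days, with medium ± inhibitor renewed every 2–3 days. Viability and proliferation read by MTT dehydrogenase activity. DMSO vehicle matched at ≤0.1%.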
# [4] = human, in vivo
# [5] = system: bovine vascular smooth muscle cells (bVSMCs); test: MTT cell viability assay, bVSMCs with or without GAD medium, 7 or 9 days (Example 5); assay type: cell-based
# Description: As above, cells were treated either with medium only (“no-additions”; NA)+/−inhibitors, or with the GAD-medium+/−inhibitors. […] Additionally, an MTT assay was performed as a measure of cell viability/proliferation. Bovine VSMCs were seeded in 96 well plates and cultured in M199/20% FCS for 1 day. Then, the cells were incubated with inhibitor concentrations of 10 μM, 1 μM and 0.1 μM (in M199 medium+5% FBS). […] Then, the MTT assay was performed.
smiles,measurement,setting,value
CN(C)c1ccc(O)c2c1C[C@H]1C[C@H]3[C@H](N(C)C)C(O)=C(C(N)=O)C(=O)[C@@]3(O)C(O)=C1C2=O [minocycline],inhibition at 1 µM,"[1]; Bos taurus, 216 h, bVSMCs, GAD medium, nine days, 1 μM, read-out: Reduction of Ca^2+ deposition compared to no potential inhibitor",~38%
same,inhibition at 10 µM,"[1]; Bos taurus, 216 h, bVSMCs, GAD medium, nine days, 10 μM, read-out: Reduction of Ca^2+ deposition compared to no potential inhibitor",~81%
same,Concentration at which calcification is inhibited (as low as),"[1]; bVSMC GAD model, Example 5",1 µM
same,"Ca^2+ concentration found in bVSMCs, mean","[1]; nine days, no GAD, 0.1 μM",1.484 μg calcium/ml
same,"Ca^2+ concentration found in bVSMCs, mean","[1]; nine days, no GAD, 1 μM",1.327 μg calcium/ml
same,"Ca^2+ concentration found in bVSMCs, mean","[1]; nine days, no GAD, 10 μM",0.925 μg calcium/ml
same,"Ca^2+ concentration found in bVSMCs, mean","[1]; nine days, with GAD, 0.1 μM",26.16 μg calcium/ml
same,"Ca^2+ concentration found in bVSMCs, mean","[1]; nine days, with GAD, 1 μM",21.35 μg calcium/ml
same,"Ca^2+ concentration found in bVSMCs, mean","[1]; nine days, with GAD, 10 μM",3.74 μg calcium/ml
same,"Ca^2+ concentration found in bVSMCs, mean","[1]; seven days, no GAD, 0.1 μM",0.654 μg calcium/ml
same,"Ca^2+ concentration found in bVSMCs, mean","[1]; seven days, no GAD, 1 μM",0.595 μg calcium/ml
same,"Ca^2+ concentration found in bVSMCs, mean","[1]; seven days, no GAD, 10 μM",0.523 μg calcium/ml
same,"Ca^2+ concentration found in bVSMCs, mean","[1]; seven days, with GAD, 0.1 μM",1.79 μg calcium/ml
same,"Ca^2+ concentration found in bVSMCs, mean","[1]; seven days, with GAD, 1 μM",2 μg calcium/ml
same,"Ca^2+ concentration found in bVSMCs, mean","[1]; seven days, with GAD, 10 μM",2.38 μg calcium/ml
same,maximum concentration (Cmax) in a patient's bloodstream,[2]; 50 mg oral dose,0.65 micrograms/mL
same,half-life in the body,[2]; in vivo,approximately 12 hours
same,"Toxicity to bVSMCs (MTT assay, in words)",[3],non-toxic
same,dosage needed to reach the concentration of 0.46 micrograms/mL,[4],approximately 20 mg
same,Cell viability (%) mean,"[5]; nine days, no GAD, 1 μM",96.64%
same,Cell viability (%) mean,"[5]; nine days, no GAD, 10 μM",105.1%
same,Cell viability (%) mean,"[5]; nine days, with GAD, 0.1 μM",74.53%
same,Cell viability (%) mean,"[5]; nine days, with GAD, 1 μM",72.42%
same,Cell viability (%) mean,"[5]; nine days, with GAD, 10 μM",105.89%
same,Drop off in formazan production (MTT) in the GAD-treatment group,"[5]; nine days, with GAD, 10 μM",not observed
same,Cell viability (%) mean,"[5]; seven days, no GAD, 0.1 μM",94.56%
same,Cell viability (%) mean,"[5]; seven days, no GAD, 1 μM",91.09%
same,Cell viability (%) mean,"[5]; seven days, no GAD, 10 μM",95.49%
same,Cell viability (%) mean,"[5]; seven days, with GAD, 1 μM",96.84%
same,Cell viability (%) mean,"[5]; seven days, with GAD, 10 μM",102.07%
